pIC50: −log10 of the molar value. Active and inactive are the calls of the source. No cut-off for these calls is given here.
What was measured:
Caco-2 [1] = assay: Anticancer activity against human Caco-2 cells incubated for 72 hrs by MTT assay; type: functional, cell-based; conditions: Caco-2, 72 h
[2] = Cytotoxicity in human WI-38 cells assessed as safe dose incubated for 72 hrs by MTT assay; type: toxicity, cell-based; conditions: read-out: EC100
HepG2 [3] = assay: Induction of apoptosis in human HepG2 cells assessed as increase in Bax expression level relative to 5-fluorouracil; type: functional
[4] = molecular target: T1, Tumour suppressor p53/oncoprotein Mdm2 (Homo sapiens, UniProt P04637+Q00987); assay: Inhibition of human recombinant MDM2/p53 interaction measured after 10 mins by ELISA method; type: protein assay
Target sequence in this assay (P04637 whole entry): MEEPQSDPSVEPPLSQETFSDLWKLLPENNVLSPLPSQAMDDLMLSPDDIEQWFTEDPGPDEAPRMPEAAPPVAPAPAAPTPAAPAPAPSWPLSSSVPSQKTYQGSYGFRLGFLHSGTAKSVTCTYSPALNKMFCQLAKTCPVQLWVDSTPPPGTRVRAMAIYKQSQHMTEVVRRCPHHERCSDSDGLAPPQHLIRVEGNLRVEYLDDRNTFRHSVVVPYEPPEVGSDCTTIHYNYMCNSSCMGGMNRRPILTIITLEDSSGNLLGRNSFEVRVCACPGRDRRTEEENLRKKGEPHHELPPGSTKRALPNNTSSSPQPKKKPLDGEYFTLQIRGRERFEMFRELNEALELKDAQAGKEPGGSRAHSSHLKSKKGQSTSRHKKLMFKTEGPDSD
Target sequence in this assay (Q00987 whole entry): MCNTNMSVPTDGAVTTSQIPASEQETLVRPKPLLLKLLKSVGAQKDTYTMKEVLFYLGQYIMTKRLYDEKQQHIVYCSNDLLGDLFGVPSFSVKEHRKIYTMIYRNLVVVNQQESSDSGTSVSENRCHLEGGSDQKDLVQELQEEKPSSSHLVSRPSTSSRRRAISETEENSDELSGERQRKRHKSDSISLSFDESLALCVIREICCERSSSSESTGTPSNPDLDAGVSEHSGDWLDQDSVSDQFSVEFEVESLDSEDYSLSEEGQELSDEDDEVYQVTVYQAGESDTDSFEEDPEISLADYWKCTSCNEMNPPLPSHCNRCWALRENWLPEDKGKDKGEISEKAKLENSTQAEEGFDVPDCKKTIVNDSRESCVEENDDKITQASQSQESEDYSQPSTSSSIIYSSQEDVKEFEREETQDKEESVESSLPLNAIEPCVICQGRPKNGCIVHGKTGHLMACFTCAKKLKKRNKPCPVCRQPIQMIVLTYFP

MCF7 [5] = assay: Induction of apoptosis in human MCF7 cells assessed as ratio of gene expression activity in pro apoptotic Bax to anti apoptotic Bcl-2; type: functional
HeLa [6] = assay: Induction of apoptosis in human HeLa cells assessed as increase in Bax expression level relative to 5-fluorouracil; type: functional
HeLa [7] = assay: Induction of apoptosis in human HeLa cells assessed as decrease in Bcl-2 expression level incubated for 72 hrs relative to nitrofurantoin; type: functional; design: scale not given: the % may be the effect or the level left
HeLa [8] = assay: Induction of apoptosis in human HeLa cells assessed as increase in Bax expression level relative to nitrofurantoin; type: functional
MCF7 [9] = assay: Induction of apoptosis in human MCF7 cells assessed as decrease in Bcl-2 expression level incubated for 72 hrs relative to 5-fluorouracil; type: functional; design: scale not given: the % may be the effect or the level left
MCF7 [10] = assay: Potency index, ratio of 5-fluorouracil IC50 to test compound IC50 for antiproliferative activity against human MCF7 cells; type: functional
Caco-2 [11] = assay: Induction of apoptosis in human Caco-2 cells assessed as decrease in Bcl-2 expression level incubated for 72 hrs relative to 5-fluorouracil; type: functional; design: scale not given: the % may be the effect or the level left
HepG2 [12] = assay: Induction of apoptosis in human HepG2 cells assessed as increase in Bax expression level relative to nitrofurantoin; type: functional
HepG2 [13] = assay: Induction of apoptosis in human HepG2 cells assessed as ratio of gene expression activity in pro apoptotic Bax to anti apoptotic Bcl-2; type: functional
[14] = Selectivity index, ratio of IC50 for human WI-38 cells to IC50 for human HepG2 cells; type: toxicity; conditions: WI-38 cells versus HepG2 cells, read-out: Ratio IC50
MCF7 [15] = assay: Induction of apoptosis in human MCF7 cells assessed as increase in Bax expression level relative to 5-fluorouracil; type: functional
HepG2 [16] = assay: Induction of apoptosis in human HepG2 cells assessed as decrease in Bcl-2 expression level incubated for 72 hrs relative to nitrofurantoin; type: functional; design: scale not given: the % may be the effect or the level left
MCF7 [17] = assay: Induction of apoptosis in human MCF7 cells assessed as decrease in Bcl-2 expression level incubated for 72 hrs relative to nitrofurantoin; type: functional; design: scale not given: the % may be the effect or the level left
HepG2 [18] = assay: Induction of apoptosis in human HepG2 cells assessed as decrease in Bcl-2 expression level incubated for 72 hrs relative to 5-fluorouracil; type: functional; design: scale not given: the % may be the effect or the level left
[19] = Selectivity index, ratio of IC50 for human WI-38 cells to IC50 for human HeLa cells; type: toxicity; conditions: WI-38 cells versus HeLa cells, read-out: Ratio IC50
HeLa [20] = assay: Anticancer activity against human HeLa cells incubated for 72 hrs by MTT assay; type: functional, cell-based
Caco-2 [21] = assay: Induction of apoptosis in human Caco-2 cells assessed as decrease in Bcl-2 expression level incubated for 72 hrs relative to nitrofurantoin; type: functional; design: scale not given: the % may be the effect or the level left
HeLa [22] = assay: Induction of apoptosis in human HeLa cells assessed as decrease in Bcl-2 expression level incubated for 72 hrs relative to 5-fluorouracil; type: functional; design: scale not given: the % may be the effect or the level left
[23] = Cytotoxicity in human WI-38 cells assessed as reduction in cell viability incubated for 72 hrs by MTT assay; type: toxicity, cell-based
[24] = Selectivity index, ratio of IC50 for human WI-38 cells to IC50 for human MCF7 cells; type: toxicity; conditions: WI-38 cells versus MCF7 cells, read-out: Ratio IC50
MCF7 [25] = assay: Anticancer activity against human MCF7 cells incubated for 72 hrs by MTT assay; type: functional, cell-based; conditions: MCF7, 72 h
Caco-2 [26] = assay: Induction of apoptosis in human Caco-2 cells assessed as increase in Bax expression level relative to 5-fluorouracil; type: functional
Caco-2 [27] = assay: Induction of apoptosis in human Caco-2 cells assessed as increase in Bax expression level relative to nitrofurantoin; type: functional
HeLa [28] = assay: Induction of apoptosis in human HeLa cells assessed as ratio of gene expression activity in pro apoptotic Bax to anti apoptotic Bcl-2; type: functional
HepG2 [29] = assay: Anticancer activity against human HepG2 cells incubated for 72 hrs by MTT assay; type: functional, cell-based; conditions: HepG2, 72 h
MCF7 [30] = assay: Induction of apoptosis in human MCF7 cells assessed as increase in Bax expression level relative to nitrofurantoin; type: functional
Caco-2 [31] = assay: Induction of apoptosis in human Caco-2 cells assessed as ratio of gene expression activity in pro apoptotic Bax to anti apoptotic Bcl-2; type: functional
[32] = Selectivity index, ratio of IC50 for human WI-38 cells to IC50 for human Caco-2 cells
[33] = molecular target: T1, Tumour suppressor p53/oncoprotein Mdm2; assay: Potency index, ratio of nitrofurantoin IC50 to compound IC50 for inhibition of human recombinant MDM2/p53 interaction; type: protein assay
Target sequence in this assay (P04637 whole entry, looked up): as the sequence (P04637 whole entry) above
Target sequence in this assay (Q00987 whole entry, looked up): as the sequence (Q00987 whole entry) above

HeLa [34] = assay: Induction of apoptosis in human HeLa cells assessed as increase in Bax expression level relative to control; type: functional
HepG2 [35] = assay: Potency index, ratio of 5-fluorouracil IC50 to test compound IC50 for antiproliferative activity against human HepG2 cells; type: functional
HepG2 [36] = assay: Induction of apoptosis in human HepG2 cells assessed as increase in Bax expression level relative to control; type: functional
MCF7 [37] = assay: Antitumor activity against human MCF7 cells xenografted in immunocompromised BALB/c mouse model assessed as tumor size reduction administered at 50 mg/kg, ip for 21 days; type: functional, organism-based; conditions: time 21.0 day
MCF7 [38] = assay: Antitumor activity against human MCF7 cells xenografted in immunocompromised BALB/c mouse model assessed as decrease in tumor maas administered at 50 mg/kg, ip for 21 days relative to control; type: functional; design: scale not given: the % may be the effect or the level left; conditions: time 21 day
HepG2 [39] = assay: Induction of oxidative stress in human HepG2 cells assessed as cell death by measuring redox alteration fluorescence incubated at 0.097 uM for 72 hrs in presence of dihydro dichlorofluorescein diacetate by DCFH-DA based flow cytometric analysis relative to control; type: functional
MCF7 [40] = assay: Induction of oxidative stress in human MCF7 cells assessed as cell death by measuring redox alteration fluorescence incubated at 0.017 uM for 72 hrs in presence of dihydro dichlorofluorescein diacetate by DCFH-DA based flow cytometric analysis relative to control; type: functional
HepG2 [41] = assay: Induction of apoptosis in human HepG2 cells assessed as viable cells incubated at 0.098 uM for 72 hrs by annexin V-FITC based propidium iodide dual staining assay (reference value: 97.27%); type: functional; conditions: read-out: Activity
MCF7 [42] = assay: Induction of oxidative stress in human MCF7 cells assessed as cell death by measuring redox alteration fluorescence incubated at 0.098 uM for 72 hrs in presence of dihydro dichlorofluorescein diacetate by DCFH-DA based flow cytometric analysis relative to control; type: functional
Caco-2 [43] = assay: Induction of apoptosis in human Caco-2 cells assessed as viable cells by measuring green uniform patch incubated at 0.017 uM for 72 hrs by acridine orange-ethidium bromide dual staining based fluorescence microscopic analysis; type: functional, cell-based

SMILES | pIC50 (Caco-2 [1]) | MNTC at 72 h [2] [nM] | Activity (HepG2 [3]) [%] | pIC50 [4] | Ratio (MCF7 [5]) | Activity (HeLa [6]) [%] | Activity (HeLa [7]) [%] | Activity (HeLa [8]) [%] | Activity (MCF7 [9]) [%] | Ratio (HepG2 [13]) | selectivity ratio [14] | selectivity ratio [19] | pIC50 (HeLa [20]) | IC50 at 72 h [23] [µM] | selectivity ratio [24] | pIC50 (MCF7 [25]) | Ratio (HeLa [28]) | pIC50 (HepG2 [29]) | Ratio (Caco-2 [31]) | Ratio IC50 [32] | further results
NS(=O)(=O)c1ccc(-n2cc(CN3C(=O)CN(/N=C/c4ccc([N+](=O)[O-])o4)C3=O)nn2)cc1 | 7.10 | 97 | 70 | 6.39 | 10.4 | 70 | 30 | 70 | 30 | 2.326 | 0.807 | 3.08 | 7.09 | 0.249 | 3.36 | 7.13 | 6.36 | 6.51 | 7.328 | 3.14 | Ratio IC50 (MCF7 [10]): 1.2; Activity (Caco-2 [11]): 30%; Activity (HepG2 [12]): 70%; Activity (MCF7 [15]): 70%; Activity (HepG2 [16]): 30%; Activity (MCF7 [17]): 30%; Activity (HepG2 [18]): 30%; Activity (Caco-2 [21]): 30%; Activity (HeLa [22]): 30%; Activity (Caco-2 [26]): 70%; Activity (Caco-2 [27]): 70%; Activity (MCF7 [30]): 70%; Ratio IC50 [33]: 3.6
C#CCN1C(=O)CN(/N=C/c2ccc([N+](=O)[O-])o2)C1=O | 7.00 | 110 | 70 | 6.23 | 4.453 | 70 | 30 | 70 | 30 | 11.74 | 3.46 | 1.16 | 6.58 | 0.306 | 2.79 | 6.95 | 3.004 | 7.05 | 5.278 | 3.13 | Activity (HeLa [34]): 300%; Ratio IC50 (HepG2 [35]): 1.2; Activity (HepG2 [36]): 300%; Activity (MCF7 [37]): Active; Ratio IC50 (MCF7 [10]): 1.2; Activity (Caco-2 [11]): 30%; Activity (HepG2 [12]): 70%; Activity (MCF7 [15]): 70%; Activity (HepG2 [16]): 30%; Activity (MCF7 [17]): 30%; Activity (HepG2 [18]): 30%; Activity (Caco-2 [21]): 30%; Activity (HeLa [22]): 30%; Activity (Caco-2 [26]): 70%; Activity (Caco-2 [27]): 70%; Activity (MCF7 [30]): 70%; Activity (MCF7 [38]): ~65%; Ratio IC50 [33]: 2.7
O=C(CN1C(=O)CN(/N=C/c2ccc([N+](=O)[O-])o2)C1=O)c1ccc(Cl)cc1 | 6.87 | 98 | 70 | 6.17 | 5.104 | 70 | 30 | 70 | 30 | 4.215 | 2.29 | 4.04 | 7.21 | 0.251 | 2.14 | 6.93 | 11.09 | 6.96 | 3.396 | 1.87 | Activity (HeLa [34]): 300%; Ratio IC50 (HepG2 [35]): 1.6; Activity (HepG2 [36]): 300%; Ratio IC50 (MCF7 [10]): 1.2; Activity (Caco-2 [11]): 30%; Activity (HepG2 [12]): 70%; Activity (MCF7 [15]): 70%; Activity (HepG2 [39]): 38.99%; Activity (HepG2 [16]): 30%; Activity (MCF7 [40]): 34.7%; Activity (MCF7 [17]): 30%; Activity (HepG2 [18]): 30%; Activity (Caco-2 [21]): 30%; Activity (HeLa [22]): 30%; viability at 0.098 µM (HepG2 [41]): 55%; Activity (Caco-2 [26]): 70%; Activity (Caco-2 [27]): 70%; Activity (MCF7 [30]): 70%; Ratio IC50 [33]: 2.4
O=c1[nH]cc(F)c(=O)[nH]1 [FLUOROURACIL] | 6.58 | 17 |  |  | 1.246 |  |  |  |  | 1.247 | 1.13 | 1.02 | 6.70 | 0.192 | 0.865 | 6.63 | 1.257 | 6.75 | 1.187 | 0.76 | Activity (MCF7 [42]): 4.24%; Activity (MCF7 [37]): Active; Activity (Caco-2 [43]): Active; Activity (MCF7 [38]): ~65%

From ChEMBL document CHEMBL5380816, “Inclusion of Nitrofurantoin into the Realm of Cancer Chemotherapy via Biology-Oriented Synthesis and Drug Repurposing” (J Med Chem, 2023)
